# Target: T1, recombinant rat AR LBD (Rattus norvegicus, UniProt P15207)
# T1 construct: recombinant rat AR LBD
# T1 sequence (P15207 651-882 limits assumed): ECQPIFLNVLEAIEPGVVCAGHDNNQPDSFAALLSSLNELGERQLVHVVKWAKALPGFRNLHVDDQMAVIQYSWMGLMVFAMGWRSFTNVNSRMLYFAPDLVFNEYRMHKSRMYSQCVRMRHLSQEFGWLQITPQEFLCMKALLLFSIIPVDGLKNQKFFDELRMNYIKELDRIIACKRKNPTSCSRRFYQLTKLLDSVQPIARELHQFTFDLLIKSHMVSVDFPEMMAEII
# Assay: competition fluorescence polarization binding assay
# Conditions: relative binding affinity; ratio of Kd of test compound to Kd of DHT multiplied by 100
# Description: Binding affinity of the synthesized ligands was evaluated by competition fluorescence polarization assay using recombinant rat AR LBD, and the results summarized in Table 1. All ligands with a bulky right-hand extension, such as compounds 18-20 in FIG. 5, performed poorly in this assay, with even the best compounds binding AR only weakly. […] In Table 1, RBA stands for relative binding affinity, and is defined as the ratio of Kd of the test compound to Kd of DHT multiplied by 100.
row,SMILES,RBA (DHT = 100)
1,"CC12Cc3cn[nH]c3C=C1CCCC2CCCO (stereo not drawn) [Compound 12, 3-(4α-Methyl-4,4α,5,6,7,8-hexahydro-1H-benzo[f]indazol-5-yl)propan-1-ol]",1
2,CC12Cc3cnn(-c4ccc(F)cc4)c3C=C1CCCC2CCc1ccc(CO)cc1 (centres unmarked) [Compound 20],0.12
3,"CC12Cc3cnoc3C=C1CCCC2CCc1ccc(CO)cc1 (centres unmarked) [Compound 19, {4-[2-(4a-Methyl-4,4a,5,6,7,8-hexahydro-naphtho[2,3-d]isoxazol-5-yl)-ethyl]-phenyl}-methanol]",<0.1
4,"CC12Cc3cnn(-c4ccc(F)cc4)c3C=C1CCCC2CCCO (stereo not drawn) [Compound 16, 3-(1-[4-Fluorophenyl]-4α-Methyl-4,4α,5,6,7,8-hexahydro-1H-benzo[f]indazol-5-yl)propan-1-ol]",19
5,"CC12Cc3cn[nH]c3C=C1CCCC2CCc1ccc(CO)cc1 (centres unmarked) [Compound 18, {4-[2-(4a-Methyl-4,4a,5,6,7,8-hexahydro-1H-benzo[f]indazol-5-yl)-ethyl]-phenyl}-methanol]",<0.1

# Source: patent US7645885B2, “Non-steroidal antiandrogens” (The Regents of the University of California, priority 2005, dated 2010)
